Data set [1] concerns orthotopically implanted BT474 tumors. The data set can be described thus: In vivo assay for EXO-DEPT EV functionality, tumor growth. Details: species or system nu/nu mice. As to conditions: 2×10^9 EVs i.p., CNOB 3.3 mg/kg i.v. On the procedure: In vivo assays for EXO-DEPT EV functionality. All animal experiments were performed in accordance with protocols approved by Stanford University Institutional Animal Care and Use Committee. Number of mice required for this study was determined by power analysis using the G*Power 3.1.5 power calculator (Universitat Dusseldorf) for F-tests of one-way ANOVA by setting Type I error at 5% (alpha=0.05); power was kept at 0.8, and the number of treatment groups=5. The effect size f was calculated as 0.707. This number was then used to determine total sample size of 30 with 6 mice per treatment group (n=6). […] Tumor size was monitored by caliper at two-day intervals, and tumor volume was calculated using the formula: tumor width^2×its length/2. […]
The effect of administration of EXO-DEPT EVs along with CNOB was tested on orthotopically implanted BT474 tumors in athymic mice; the treatment schedule (FIG. 4E) was guided by earlier PK/PD studies. […] After measurable implanted tumors in mice were detected, they were randomly allocated into 5 treatment groups (n=6): untreated; loaded EVs only; CNOB only; undirected loaded EVs+CNOB; and EXO-DEPT-EVs+CNOB. […]
Each mouse was measured at nine time periods, days 0,3,7,11,16,19,24,28,32. A linear regression of tumor burden versus day was fit for each mouse, by ordinary least squares, and its slope calculated. s[i]=slope of mouse[i]'s linear regression

For data set [2], the system named is 4T1 murine mammary cells that endogenously generated HChrR6 enzyme. As to conditions: initial studies; cited from earlier work.
The conditions of data set [3]: earlier PK/PD studies; cited from earlier work.

Take `O=c1c(Cl)c2oc3cc([N+](=O)[O-])ccc3nc-2c2ccccc12` [CNOB, 6-chloro-9-nitro-5-oxo-5H-benzo-(a)-phenoxazine]: the tumor growth entry in data set [1] (versus controls) was “no significant difference”. For the same compound, the “mean slope of linear regression of tumor burden versus day” value in data set [1] (days 0-32) was found to be 7.24. Further, the survival of mice result in data set [2] is listed as “marked improvement”.

As for `Nc1ccc2nc3c4ccccc4c(=O)c(Cl)c-3oc2c1` [MCHB, 9-p amino-6-chloro-5H-benzo′a″phenoxazine-5-one], the half-life in plasma in data set [3] was 8.3 h.
